The source of these data is patent US7601834B2, “Compositions and methods of reducing side effects and toxicity of methotrexate when given as orotate derivatives” (SavviPharm Inc, priority 2005, dated 2009).

Like-named read-outs stand apart in the source and are kept apart here.

For data set [1], the system named is DU-145 human prostate tumor xenografts.
Description: The purpose of the experiment was to evaluate the antitumor efficacy of methotrexate (MTX) and its orotate derivative (MTX orotate) against subcutaneously (SC) implanted DU=145 human prostate tumor xenografts in male athymic NCr-nu/nu mice.
Drug formulation—2.7 mg/mL solution of MTX (Sigma-Aldrich, catalog no. M9929, lot no. 114K1572 used on days 15 and 19, and catalog no. A6770, lot no. 21H0324 used on days 19, 23 and 35) was formulated fresh on each day of treatment in 2% sodium bicarbonate in water for injection (WFI). The 2.7 mg/mL solution was diluted with sodium bicarbonate in WFI to 1.8 and 1.2 mg/mL.
A 4.25 mg/mL solution of MTX orotate was formulated fresh on each day of treatment in 2% bicarbonate in WFI to 2.83 and 1.89 mg/mL. Control group was treated with 2% sodium bicarbonate in WFI. Both compounds and the vehicle were administered to mice by exact individual animal's body weight on each day of treatment with the injection volume being 0.1 mL/10 g of body weight.
Seven groups of 10 mice per group were injected intraperitoneally (ip) once every four days for a total of 3 injections (q4d×3, Days 15, 19, 23 and 35) as follows: Group 1—2% sodium bicarbonate, Groups 2, 3 and 4 with MTX at 27, 18, and 12 mg/kg/dose, respectively. Groups 5, 6, and 7 were treated with MTX orotate at dosages 42.5, 28.3 and 18.9 mg/kg/dose respectively (based on MW of MTX=454.4 and MW of MTX orotate=714.7).
Tumors were measured and volume determined using formula L×W^2/2=mm^3; and weight calculated assuming 1 mm^3=1 mg. The study was terminated 47 days after tumor implantation
Data set [2] is described as follows: Pharmacokinetic analysis and oral bioavailability in rats. In kind it is in vivo, male Spagrue-Dawley rats. As to conditions: rat; for AUC: estimated for infinity; for half-life: read-out: Elim Half-Life (converted). How it is done: A PK study was done in rats to determine the PK profile and oral bioavailability of methotrexate and compared this to the orotate salt of methotrexate. This was done in male Spagrue-Dawley rats. This compound was administered intravenously (IV; 10 mg/kg; for methotrexate and 15.7 mg/kg for methotrexate orotate 1 mL/kg; vehicle 1% NaHCO3 in 0.9% saline) or via oral gavage (PO; 100 mg/kg methotrexate; 157 mg/kg methotrexate orotate; vehicle 1% NaHCO3 in 0.9% saline) and the plasma levels of compound in the plasma were determined at specified times. By calculating the ratio of the area under the curve for the compound concentrations (estimated for infinity as is typically done) for PO vs IV, percent oral bioavailability can be determined. Of course normalization for the different doses given IV vs PO was taken into account for determination of oral bioavailability.

For data set [3] the following is noted: in vivo; cited from earlier work.
The mark [4] stands for this setting: IV, 15.7 mg/kg methotrexate orotate.
The mark [5] stands for this setting: PO, 157 mg/kg methotrexate orotate.
Where [6] appears, read: male, Sprague-Dawley, plasma, IV, 10 mg/kg methotrexate.
Where [7] appears, read: male, Sprague-Dawley, plasma, PO, 100 mg/kg methotrexate.

Usually Tmax stands for the time at which the peak concentration occurs. Consider `CN(Cc1cnc2nc(N)nc(N)c2n1)c1ccc(C(=O)NC(CCC(=O)O)C(=O)[O-])cc1.O=C(O)c1cc(=O)[nH]c(=O)[nH]1.[Na+]` (stereo not drawn) [Methotrexate Orotate, sodium methotrexate orotate], for which the “Tumor weight - inhibition of growth of DU-145 xenografts” value in data set [1] (MTX orotate highest dose (42.5 mg/kg/dose) ip q4d) is on record as “marginal inhibition”. Also, the “Tumor weight - tumor inhibition” value in data set [1] (MTX orotate two low doses (28.3 and 18.9 mg/kg/dose) ip q4d, SC DU-145 xenografts) is recorded as “no effect”. Besides, the “Tumor growth compared with MTX” value in data set [1] (ip, equivalent dosages, SC DU-145 xenografts) is on record as “no significant difference”. Also, in data set [2] (IV), the “Apparent volume of distribution and plasma clearance rate relative to methotrexate” value was “higher”; the “Area under the curve (AUC) relative to methotrexate” value is on record as “slightly lower”. Besides, in data set [2] (setting [4]), the Cl amounted to 263.08 ± 17.08 mL/min/kg, the Cmax plasma is given as 2843 ± 121 ng/mL, the “Elim Half-Life” value stood at 28.2 ± 0 min and the time to peak (Tmax) was determined as 6 ± 0 min. Also, in data set [2] (setting [4]), the Vd came out at 10.804 ± 0.733 L/kg and the AUC was 792 ± 62 ng·mL·h. Besides, in data set [2] (PO), the “Elimination half-life relative to methotrexate” value is listed as “shorter” and the “Rate of getting into the plasma relative to methotrexate” value is “somewhat slower”. The “% bioavailability (oral)” value in data set [2] (PO 157 mg/kg vs IV 15.7 mg/kg methotrexate orotate, dose-normalized AUC ratio) is on record as 14%. Besides, in data set [2] (setting [5]), the Cl turned out to be 3233.05 ± 518.18 mL/min/kg, the Cmax plasma was determined as 59 ± 20 ng/mL, the “Elim Half-Life” value turned out to be 1060 ± 480 min and the time of peak concentration (Tmax) came out at 96 ± 24 min. In data set [2] (setting [5]), the Vd was determined as 3345.18 ± 472.947 L/kg and the AUC was 1140 ± 390 ng·mL·h.

What is called Cmax is the peak of the concentration-time curve. The term half-life denotes how long it takes for the measured level to halve. As usually defined, the bioavailability is dose-corrected exposure relative to a reference, in per cent. `CN(Cc1cnc2nc(N)nc(N)c2n1)c1ccc(C(=O)N[C@@H](CCC(=O)O)C(=O)O)cc1` [Methotrexate, methotrexate]: in data set [3], the “Bound to plasma proteins” value is given as “approximately 50%” and the “Elimination from plasma, gamma half life” value is 1620 min. Besides, the “Tumor weight - tumor inhibition” value in data set [1] (MTX 27, 18 and 12 mg/kg/dose ip q4d, SC DU-145 xenografts) was “no effect”. Moreover, in data set [2] (setting [6]), the Cmax was 3780 ± 636 ng/mL, the clearance is 157 mL/min/kg and the half-life was 26.4 ± 0.6 min. Moreover, the time of peak concentration (Tmax) in data set [2] (male, Sprague-Dawley, plasma, IV, 10 mg/kg methotrexate, read-out: Tmax) is 6 min. In addition, the Vd in data set [2] (male, Sprague-Dawley, plasma, IV, 10 mg/kg methotrexate, read-out: Vd) turned out to be 6.12 ± 0.671 L/kg. In addition, in data set [2] (male, Sprague-Dawley, plasma, PO 100 mg/kg vs IV 10 mg/kg methotrexate, dose-normalized AUC ratio), the bioavailability was 6%. Further, in data set [2] (setting [7]), the maximum concentration (Cmax) amounted to 51 ± 12 ng/mL and the half-life was 1880 ± 924 min. For the same compound, the Tmax in data set [2] (male, Sprague-Dawley, plasma, PO, 100 mg/kg methotrexate, read-out: Tmax) is 54 ± 36 min. The AUC in data set [2] (IV, 10 mg/kg methotrexate) was 1151 ± 142 ng·mL·h. In addition, in data set [2] (PO, 100 mg/kg methotrexate), the Cl stood at 2537.12 ± 257.27 mL/min/kg, the Vd worked out at 6811.662 ± 3415.946 L/kg and the AUC is 671 ± 70 ng·mL·h.
